Patent US20230095912A1, “Composition and Methods for Selective Degradation of Engineered Proteins” (Celgene Corporation, priority 2021, published 2023)
Like-named read-outs stand apart in the source and are kept apart here.

Tests used:
[1] = system: CAR tagged with ZNF2_3 containing a G6N mutation; experiment: Compound A titration on Jurkat cells with CAR tagged with ZNF2_3 G6N mutant degron; assay type: cell-based, human; settings: any dose
Text: The IKZF1 degrons were fused to the C-terminus. See SEQ ID NOs: 53-57. […] This configuration was therefore selected for further testing.

ePL-tagged CK1a = target: T1, ePL-tagged CK1a (Homo sapiens, UniProt P48729+Q96SW2); experiment: ePL-tagged substrate degradation in MDS-L cells; assay type: cell-based; settings: for DC50: CK1a, MDS-L cells, 4 hours
T1 construct: expressed in transfected cells
T1 sequence (P48729 whole entry): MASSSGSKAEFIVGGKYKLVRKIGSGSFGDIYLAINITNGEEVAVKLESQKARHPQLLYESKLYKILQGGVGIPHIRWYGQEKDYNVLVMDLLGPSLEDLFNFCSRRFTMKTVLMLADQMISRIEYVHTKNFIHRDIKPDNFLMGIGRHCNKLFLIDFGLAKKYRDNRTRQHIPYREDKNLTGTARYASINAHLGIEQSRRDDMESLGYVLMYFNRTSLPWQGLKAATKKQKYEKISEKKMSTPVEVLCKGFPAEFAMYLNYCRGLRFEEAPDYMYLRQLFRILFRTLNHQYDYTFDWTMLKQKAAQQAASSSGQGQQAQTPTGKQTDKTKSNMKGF
T1 sequence (Q96SW2 whole entry): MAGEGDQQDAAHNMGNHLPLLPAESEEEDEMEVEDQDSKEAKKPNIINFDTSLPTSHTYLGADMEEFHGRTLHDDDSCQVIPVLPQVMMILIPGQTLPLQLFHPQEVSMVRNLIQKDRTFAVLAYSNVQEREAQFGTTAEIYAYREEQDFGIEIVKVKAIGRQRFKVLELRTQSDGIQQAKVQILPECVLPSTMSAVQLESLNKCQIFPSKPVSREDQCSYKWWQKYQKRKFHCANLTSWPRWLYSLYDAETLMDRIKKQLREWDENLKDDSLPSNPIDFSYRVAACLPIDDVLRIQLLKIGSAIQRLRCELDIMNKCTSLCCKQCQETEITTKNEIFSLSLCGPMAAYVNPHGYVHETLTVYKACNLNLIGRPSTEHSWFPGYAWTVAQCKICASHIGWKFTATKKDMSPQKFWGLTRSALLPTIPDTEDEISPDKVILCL
T1 sequence (Q16531 whole entry partner): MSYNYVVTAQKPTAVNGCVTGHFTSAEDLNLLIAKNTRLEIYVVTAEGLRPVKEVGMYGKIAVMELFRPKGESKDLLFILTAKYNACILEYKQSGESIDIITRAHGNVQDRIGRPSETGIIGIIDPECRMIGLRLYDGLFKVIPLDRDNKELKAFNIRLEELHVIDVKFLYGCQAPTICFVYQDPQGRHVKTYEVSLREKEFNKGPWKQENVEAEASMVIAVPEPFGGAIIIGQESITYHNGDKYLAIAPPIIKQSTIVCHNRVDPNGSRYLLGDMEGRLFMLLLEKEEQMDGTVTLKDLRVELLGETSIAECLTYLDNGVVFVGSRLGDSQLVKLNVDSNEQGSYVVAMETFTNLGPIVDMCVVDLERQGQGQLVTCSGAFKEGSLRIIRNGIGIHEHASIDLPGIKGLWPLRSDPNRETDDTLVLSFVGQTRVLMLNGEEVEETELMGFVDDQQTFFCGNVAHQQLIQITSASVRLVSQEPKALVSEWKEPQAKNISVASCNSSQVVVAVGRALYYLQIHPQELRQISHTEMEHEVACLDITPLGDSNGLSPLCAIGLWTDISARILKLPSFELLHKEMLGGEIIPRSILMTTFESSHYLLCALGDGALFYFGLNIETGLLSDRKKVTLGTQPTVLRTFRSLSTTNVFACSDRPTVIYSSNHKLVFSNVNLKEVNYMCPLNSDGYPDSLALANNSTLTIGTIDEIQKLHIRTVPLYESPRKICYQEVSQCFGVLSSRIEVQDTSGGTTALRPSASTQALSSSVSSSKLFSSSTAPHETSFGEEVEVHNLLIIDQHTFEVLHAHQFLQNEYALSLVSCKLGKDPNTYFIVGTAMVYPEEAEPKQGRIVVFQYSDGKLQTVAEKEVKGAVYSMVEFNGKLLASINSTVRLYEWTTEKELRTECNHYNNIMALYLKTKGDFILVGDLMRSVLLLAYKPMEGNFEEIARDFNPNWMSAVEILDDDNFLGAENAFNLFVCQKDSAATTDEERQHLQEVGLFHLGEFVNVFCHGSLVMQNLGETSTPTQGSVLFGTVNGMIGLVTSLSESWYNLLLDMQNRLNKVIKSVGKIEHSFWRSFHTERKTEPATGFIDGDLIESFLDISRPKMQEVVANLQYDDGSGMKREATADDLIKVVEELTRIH
Method: (§1) DF15 multiple myeloma cells stably expressing ePL-tagged Aiolos, Ikaros, or GSPT1, and MDS-L cells stably expressing ePL-tagged CK1a were generated via lentiviral infection with pLOC-ePL-Aiolos (or Ikaros, GSPT1, or CK1a). […] Compounds were dispensed by an acoustic dispenser (ATS acoustic transfer system from EDC Biosystems) into a 384-well plate in a 10-point dose response curve using 3-fold dilutions starting at 10 μM and going down to […]. Then, 25 μL of media (RPMI-1640+10% heat inactivated FBS+25 mM Hepes+1 mM Na pyruvate+1× NEAA+1×Pen Strep Glutamine) containing 5000 of DF15 or MSD-L cells was dispensed per well. Assay plates were incubated at 37° C. with 5% CO2 for 4 hours except 20 hours for GSPT1. After incubation, 25 μL of the InCELL Hunter detection reagent working solution (DiscoverX, catalogue no. 96-0002, Fremont, Calif.) was added to each well and incubated at room temperature for 60 min protected from light. After 60 min, luminescence was read on an Envision or PHERAstar luminescence reader.
(§2) To determine the EC50 value of a compound for the degradation of a given substrate (concentration of compound that achieves half the maximum degradation observed), a four-parameter logistic model (sigmoidal dose—response model) (FIT=(A+{(B−A)/1+[(C/x)D]})) where C is the inflection point (EC50), D is the […], and A and B are the low and high limits of the fit, respectively) was used. All substrate degradation curves were processed and evaluated using ActivityBase (IDBS), a data analysis software package. Ymin is minimum percent protein remaining.

[2] = target: IKZF1 ZNF2-tagged CD19 CAR (Homo sapiens, UniProt Q13422+Q96SW2); settings: jurkat, 1440 min
[3] = target: CAR tagged with WT ZNF2_3 (Homo sapiens, UniProt Q13422+Q96SW2); settings: higher Compound A concentrations
Chain of CAR tagged with WT ZNF2_3 (Q13422 other isoform, or with tags, fused parts or gaps): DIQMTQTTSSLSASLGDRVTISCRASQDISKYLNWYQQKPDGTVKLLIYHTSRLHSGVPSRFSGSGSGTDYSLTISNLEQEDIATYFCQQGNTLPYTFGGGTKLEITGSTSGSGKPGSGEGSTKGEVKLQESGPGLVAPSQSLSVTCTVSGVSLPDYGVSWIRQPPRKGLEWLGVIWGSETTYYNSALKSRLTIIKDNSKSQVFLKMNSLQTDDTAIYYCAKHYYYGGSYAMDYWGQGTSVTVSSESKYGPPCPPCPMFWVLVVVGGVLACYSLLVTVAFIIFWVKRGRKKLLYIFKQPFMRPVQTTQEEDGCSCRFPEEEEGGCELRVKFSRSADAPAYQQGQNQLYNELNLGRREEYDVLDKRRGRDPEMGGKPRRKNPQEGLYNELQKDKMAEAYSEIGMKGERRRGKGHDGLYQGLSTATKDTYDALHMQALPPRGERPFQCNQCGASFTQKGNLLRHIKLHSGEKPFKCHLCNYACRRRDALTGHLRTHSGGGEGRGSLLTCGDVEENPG
Chain of CAR tagged with WT ZNF2_3 (Q96SW2 whole entry): as the sequence (Q96SW2 whole entry) above
Chain of CAR tagged with WT ZNF2_3 (Q16531 whole entry, further chain): as the sequence (Q16531 whole entry partner) above
Method: The IKZF1-ZNF2 degron was further modified to promote improved CAR degradation. Untagged CAR and CAR tagged with the original IKZF1-ZNF2 degrons were tested alongside alternate orientations and combinations of IKZF1 ZNF1, ZNF2, and ZNF3 (FIG. 5A). Each CAR included a CD28 transmembrane domain, a 4-1BB costimulatory domain, and a CD3 (CD3z) signaling domain. The IKZF1 degrons were fused to the C-terminus. […] A lentiviral vector encoding untagged CD19 CAR or CAR tagged with various configurations of IKZF1-ZNFs was transduced into the Jurkat cell line. Transduced cells were first co-cultured with a CD19-expressing K562 target cell line at 37° C. for 7.5 hours, and normalized levels of tdTomato reporter were assessed by flow cytometry.

[4] = system: WT IKZF1 ZNF2_3-tagged CARs; experiment: Erk phosphorylation (pErk) western blot after CAR degradation in Jurkat cells; assay type: cell-based, human; settings: 1 mM pretreatment 12 hours, co-culture with CD19-expressing K562 30 minutes
Method: Abrogation of signaling with CAR degradation was assessed by measuring activation of the downstream MAPK signaling pathway. Jurkat cells were transduced with untagged, WT degron-tagged, or G6N degron-tagged CAR as described above.

tagged TOX = settings: 1 μM, 16 hours, knock-in Jurkat cells
Text: (§3) The ability to knock degron tags in-frame into genomic loci to allow for compound-mediated modulation of endogenous protein levels was explored. Adeno-associated viral vectors were designed to deliver IKZF1 ZNF2_3-V5 tag-T2A-muThy1.1 tags to be knocked in-frame into the AURA (FIG. […]) or TOX locus (FIG. 20C-20D) in Jurkat cells in both the N- and C-terminal orientations. Jurkats were then electroporated with Cas9/guide RNA ribonucleoproteins. […] Cells were then pelleted, lysed, run on a denaturing protein gel, transferred to a membrane, probed with antibody and visualized with film.

Aurora A = settings: 1 μM, 16 hours, knock-in Jurkat cells
Text: as §3

ePL-tagged GSPT1 = target: T2, ePL-tagged GSPT1 (Homo sapiens, UniProt P15170+Q96SW2); experiment: ePL-tagged substrate degradation in DF15 multiple myeloma cells; assay type: cell-based; settings: for DC50: GSPT1, DF15 cells, 20 hours
T2 construct: expressed in transfected cells
T2 sequence (P15170 whole entry): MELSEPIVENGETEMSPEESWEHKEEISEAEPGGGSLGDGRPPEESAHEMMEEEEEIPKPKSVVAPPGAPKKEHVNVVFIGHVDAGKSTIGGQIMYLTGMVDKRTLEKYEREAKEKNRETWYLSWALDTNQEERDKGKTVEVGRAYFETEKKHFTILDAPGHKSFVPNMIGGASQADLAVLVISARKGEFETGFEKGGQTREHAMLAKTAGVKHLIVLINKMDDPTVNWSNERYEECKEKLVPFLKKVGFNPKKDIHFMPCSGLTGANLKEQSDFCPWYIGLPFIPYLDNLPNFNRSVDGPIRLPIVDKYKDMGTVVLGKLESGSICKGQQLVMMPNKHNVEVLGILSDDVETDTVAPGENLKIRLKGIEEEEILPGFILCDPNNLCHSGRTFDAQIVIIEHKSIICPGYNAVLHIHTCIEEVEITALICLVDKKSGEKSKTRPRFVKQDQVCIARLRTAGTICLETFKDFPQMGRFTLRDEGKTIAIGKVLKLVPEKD
T2 sequence (Q96SW2 whole entry): as the sequence (Q96SW2 whole entry) above
T2 sequence (Q16531 whole entry partner): as the sequence (Q16531 whole entry partner) above
Method: as §1, §2

ePL-tagged Ikaros = target: T3, ePL-tagged Ikaros (Homo sapiens, UniProt Q13422+Q96SW2); experiment: as above; assay type: cell-based; settings: for DC50: Ikaros, DF15 cells, 4 hours
T3 construct: expressed in transfected cells
T3 sequence (Q13422 whole entry): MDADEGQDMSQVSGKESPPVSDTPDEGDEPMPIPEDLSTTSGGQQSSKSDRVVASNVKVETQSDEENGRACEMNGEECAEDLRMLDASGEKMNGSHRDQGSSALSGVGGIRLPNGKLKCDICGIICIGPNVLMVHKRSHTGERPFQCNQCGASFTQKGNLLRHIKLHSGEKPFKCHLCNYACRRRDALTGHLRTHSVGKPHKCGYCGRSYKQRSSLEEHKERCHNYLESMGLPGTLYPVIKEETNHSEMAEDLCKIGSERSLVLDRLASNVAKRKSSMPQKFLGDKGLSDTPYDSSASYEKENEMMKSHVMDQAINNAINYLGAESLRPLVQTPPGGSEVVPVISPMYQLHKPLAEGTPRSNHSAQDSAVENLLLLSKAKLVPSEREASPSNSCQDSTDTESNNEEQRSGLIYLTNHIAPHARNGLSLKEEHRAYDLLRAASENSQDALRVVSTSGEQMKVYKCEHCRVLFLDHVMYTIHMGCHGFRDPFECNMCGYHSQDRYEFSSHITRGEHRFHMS
T3 sequence (Q96SW2 whole entry): as the sequence (Q96SW2 whole entry) above
T3 sequence (Q16531 whole entry partner): as the sequence (Q16531 whole entry partner) above
Method: as §1, §2

[5] = target: IKZF1 ZNF2_3 tagged CD19 CAR (Homo sapiens, UniProt Q13422+Q96SW2); settings: 100 nM pre-treatment 48 hours, co-culture with CD19-expressing K562 8 hours
Method: Function of IKZF1 ZNF2 tagged CD19 CAR T cells (FIG. 2, ZNF2 amino acid sequence of SEQ ID NO: 15) was evaluated in a reporter assay, in which Jurkat cells have been engineered to express tdTomato when the Nur77 gene, associated with CAR and TCR activation, is actively transcribed (FIG. 3). Lentiviral vectors encoding ZNF-tagged CD19 CAR, untagged CD19 CAR, or an untagged BCMA CAR negative control were transduced into the Jurkat reporter cell line. Transduced cells were then co-cultured with a CD19-expressing K562 target cell line at 37° C. Levels of tdTomato, both in the form of mean fluorescence intensity (MFI) and the overall percent of positive cells, were assessed by flow cytometry every 2 hours for 12 hours.
A lentiviral vector encoding ZNF2_3 tagged or untagged CD19 CAR (see Example 2) was transduced into the reporter cell line. […] Levels of tdTomato in the form of mean fluorescence intensity (MFI) (FIG. 6B) and the overall percent of positive cells, as well as normalized CAR levels (FIG. 6C), were assessed by flow cytometry (FIG. 6A).

Helios = target: T4, Helios (Homo sapiens, UniProt Q96SW2+Q9UKS7); experiment: Helios HiBit degradation in Jurkat cells; assay type: cell-based; settings: for DC50: Helios, Jurkat/Helios/HiBit cells, 18 hr, read-out: EC50 (the source's name)
T4 construct: endogenous in cells; host or cells: Jurkat/Helios/HiBit cells (CRISPR/Cas9 knock-in)
T4 sequence (Q9UKS7 whole entry): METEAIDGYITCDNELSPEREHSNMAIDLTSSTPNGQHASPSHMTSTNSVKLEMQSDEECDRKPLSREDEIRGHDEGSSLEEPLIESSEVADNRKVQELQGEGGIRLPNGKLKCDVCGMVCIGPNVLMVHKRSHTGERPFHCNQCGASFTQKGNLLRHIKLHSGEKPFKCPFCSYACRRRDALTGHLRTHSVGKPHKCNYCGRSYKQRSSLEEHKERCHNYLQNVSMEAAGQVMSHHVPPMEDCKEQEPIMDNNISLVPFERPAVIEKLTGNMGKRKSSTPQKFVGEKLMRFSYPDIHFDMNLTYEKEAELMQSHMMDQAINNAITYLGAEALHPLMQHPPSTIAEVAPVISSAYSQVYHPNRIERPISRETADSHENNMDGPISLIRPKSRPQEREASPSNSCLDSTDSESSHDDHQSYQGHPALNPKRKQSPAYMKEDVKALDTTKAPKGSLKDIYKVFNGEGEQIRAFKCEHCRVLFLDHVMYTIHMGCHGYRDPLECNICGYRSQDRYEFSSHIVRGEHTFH
T4 sequence (Q96SW2 whole entry): as the sequence (Q96SW2 whole entry) above
T4 sequence (Q16531 whole entry partner): as the sequence (Q16531 whole entry partner) above
Method: For Helios, a stable Jurkat cell line was engineered using CRISPR/Cas9 to insert an in-frame HiBit tag into the carboxy-terminal reading frame of the IKZF2 gene. Test compounds were transferred to 1536 well plates using an acoustic dispenser, and Jurkat/Helios/HiBit cells in DMEM/10% FCS were plated at 10,000 cells/well in a final volume of 5 ul. Cells were incubated at 37C, 95% RH for 18 hr. Luciferase activity was measured by adding 2 ul/well of Nano-Glo reagent (Promega), incubating at RT for 30 min, and reading luminescence on a microtiter plate reader.
(§4) All substrate degradation curves were processed and evaluated using ActivityBase (IDBS), a data analysis software package. Ymin is minimum percent protein remaining.

ePL-tagged Aiolos = target: T5, ePL-tagged Aiolos (Homo sapiens, UniProt Q96SW2+Q9UKT9); experiment: ePL-tagged substrate degradation in DF15 multiple myeloma cells; assay type: cell-based; settings: for DC50: Aiolos, DF15 cells, 4 hours, read-out: EC50 (the source's name)
T5 construct: expressed in transfected cells
T5 sequence (Q9UKT9 whole entry): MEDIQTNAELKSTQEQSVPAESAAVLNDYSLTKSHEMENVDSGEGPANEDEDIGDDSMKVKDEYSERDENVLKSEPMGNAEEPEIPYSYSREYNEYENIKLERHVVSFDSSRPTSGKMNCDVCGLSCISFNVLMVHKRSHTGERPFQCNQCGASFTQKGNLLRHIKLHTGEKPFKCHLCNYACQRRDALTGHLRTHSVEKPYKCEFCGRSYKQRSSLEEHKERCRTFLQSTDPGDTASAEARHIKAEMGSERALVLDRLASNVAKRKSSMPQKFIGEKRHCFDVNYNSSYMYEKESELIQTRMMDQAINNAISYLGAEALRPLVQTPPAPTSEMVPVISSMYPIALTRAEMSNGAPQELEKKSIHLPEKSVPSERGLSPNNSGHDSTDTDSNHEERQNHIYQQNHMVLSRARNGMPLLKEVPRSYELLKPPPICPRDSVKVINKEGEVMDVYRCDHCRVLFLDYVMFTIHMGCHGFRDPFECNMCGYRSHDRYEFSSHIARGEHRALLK
T5 sequence (Q96SW2 whole entry): as the sequence (Q96SW2 whole entry) above
T5 sequence (Q16531 whole entry partner): as the sequence (Q16531 whole entry partner) above
Method: as §1, §4

[6] = system: IKZF1 ZNF2_3 Q1F tagged CD19 CAR; experiment: Jurkat reporter assay (tdTomato), signaling of Q1F-tagged CAR after degradation; assay type: cell-based, human; settings: 1 mM pre-treatment 12 hours, co-culture with CD19-expressing K562 8 hours
Method: A lentiviral vector encoding ZNF2_3 Q1F or Q1F/G6N tagged CD19 CAR was transduced into the reporter cell line. […] Levels of tdTomato in the form of the overall percent of positive cells (FIG. 12A), as well as mean fluorescence intensity (MFI, FIG. 12B) were assessed by flow cytometry. Degradation of CARs containing the ZNF2_3 Q1F degron decreased signaling by around 30% using 1 mM Compound C and by around 75% using Compound B; this relative difference correlates with the depth of degradation seen for each. Further, the reduction in activity depends upon having an intact G-motif, as the G6N mutation prevents inhibition.

IKZF1 ZNF2 Q1F = experiment: In vitro ubiquitination screen of Ikaros MBP-ZNF2 Q1 mutants; assay type: biochemical, human; settings: western blot
Text: Structural studies reveal that position 1 of the G-motif is in close proximity to the compound when substrates are bound to cereblon/compound complexes (not shown). Alignment of the G-motif degron sequences of the IKZF family (FIG. 8) and predicted degrons within other C2H2 zinc fingers (FIG. 9) reveal a diverse set of amino acids at this position. Therefore, to identify additional compound:degron pairs, mutations were made in the Q1 position of IKZF1 ZNF2, and potential compounds were screened for activity against these mutants. Plasmids were built containing Ikaros MBP-ZNF2 (aa 141-196) with alternate amino acids at the Q1 position, and an in vitro ubiquitination screen was conducted using various compounds including Compound B (FIG. 10A).

[7] = target: T6, CD19 CARs tagged with IKZF1 ZNF2_ZNF3 Q1F (Homo sapiens, UniProt Q13422, Q146F); experiment: Small-molecule screen: Q1F degron-tagged CD19 CAR levels in Jurkat cells, flow cytometry; assay type: cell-based; settings: for Ymin (%): minimum percent protein remaining
T6 construct: EC50 (Q1F degron); other: Jurkat cells, 18 hours, CAR levels normalized to no drug; Ymin (Q1F degron); Ymin (%); minimum percent protein remaining; Nluc reporter
T6 sequence (Q13422 whole entry Q146F): as the sequence (Q13422 whole entry) above, with Q146F counted along it
Method: A set of potential degron-targeting compounds was screened against the Q1F degron, resulting in a set of potent degron/small-molecule pairs. Lentiviral vectors containing CD19 CARs tagged with IKZF1 ZNF2_ZNF3 Q1F Nluc were transduced into Jurkat cells. The CD19 CAR was similar to the CD19 CAR in Example 2, but comprising the ZNF2_ZNF3 Q1F degron (SEQ ID NO: 19). Transduced cells were treated with a titration of each small molecule or no drug and then incubated at 37° C. for 18 hours. Cells were washed and stained with appropriate staining reagent to measure CAR levels. The cells were incubated at 4° C. in the staining reagents for 20 mins and then washed 3 times before being read on the flow cytometer. CAR levels were normalized to cells that had not been treated with drug. EC50 and Ymin values were calculated using the resulting titration curve. This identified small molecules that potently degraded the Q1F degron-tagged CARs (Table 1).

[8] = system: CD19 CARs tagged with IKZF1 ZNF2_ZNF3 Q1F; experiment: as above; assay type: cell-based, human; settings: versus Helios, Aiolos, Ikaros, GSPT1, CK1a
[9] = system: ZNF2_3 Q1F tagged CD19 CAR; experiment: Raji xenograft model, degron-tagged CAR T down-regulation in NSG mice; assay type: in vivo; settings: 6.85 mg/kg BID orally on days 0 and 1, Raji tumor
Method: (§5) The ability to degrade ZNF2_3 Q1F tagged CAR in vivo was evaluated. A lentiviral vector encoding ZNF2_3 Q1F tagged CD19 CAR was transduced into activated primary T cells. Transduced cells were expanded for 10 days in media supplemented with IL2, IL7 and IL15, then frozen.
To examine the down-regulation of degron-tagged CAR in vivo in a xenograft cancer model and the impact on CAR T function, female NSG™ mice were injected with 5×10^5 of Raji tumor cells stably expressing renilla luciferase. Six days later CAR T cells were thawed, rested for 24 hours and adoptively transferred into the mice at a dose of 2×10^6 cells per animal. Mice were dosed orally with vehicle or 6.85 mg/kg Compound D BID on days 0 and 1 (FIG. 19A). Blood was drawn and tumor fluorescence measured at D1, D3, and D10 (FIG. 19A), and the proportion of CAR+T cells, as determined by staining with anti-scFv and anti-CD3 antibodies, was evaluated by flow.

[10] = system: ZNF2_3 Q1F tagged CD19 CAR; experiment: In vivo degradation of degron-tagged CAR in non-tumor bearing NSG mice
Method: as §5
To determine the ability to degrade degron-tagged CAR in vivo in the absence of tumor, CAR T cells were thawed, rested for 24 hours and adoptively transferred into non-tumor bearing female NSG™ immunodeficient mice at a dose of 2×10^6 cells per animal. After 24 hours, mice were dosed orally with vehicle, 0.85 or 8.5 mg/kg Compound D (FIG. 18B). Blood was drawn 8, 24, 48 and 72 hours later (FIG. 18A), and the proportion of CAR+ T cells, as determined by staining with anti-scFv and anti-CD3 antibodies, was evaluated by flow.

[11] = read-out: EC50 (the source's name)
[12] = Degron Q1F (from Table 1), read-out: EC50 (the source's name)
[13] = Jurkat assay described in Example 5, read-out: EC50 for the Q1F degron
[14] = Jurkat cells, 18 hours, CAR levels normalized to no drug
[15] = Jurkat cells, 18 hours, CAR levels normalized to no drug, read-out: EC50 (Q1F degron)

Row | SMILES | Ymin (%) (Helios) | degradation of Helios (in words) (Helios) | DC50 (Helios) [nM] | Ymin (%) (ePL-tagged Aiolos) | DC50 (ePL-tagged Aiolos) [nM] | Ymin (%) (ePL-tagged CK1a) | DC50 (ePL-tagged CK1a; [11]) [nM] | Ymin (%) ([7]; Degron Q1F (from Table 1)) | DC50 [7, 12] [nM] | DC50 [7, 13] [nM] | Ymin (Q1F degron) [7, 14] [%] | DC50 [7, 15] [nM] | Ymin (%) (ePL-tagged GSPT1) | DC50 (ePL-tagged GSPT1; [11]) [nM] | Ymin (%) (ePL-tagged Ikaros) | DC50 (ePL-tagged Ikaros; [11]) [nM] | further results
1 | O=C1CCC(N2Cc3c(OCc4ccc(CN5CCN(c6ccc(F)cc6F)CC5)cc4)cccc3C2=O)C(=O)N1 (stereo not drawn) [Compound A] | – | – | – | – | – | – | – | – | – | – | – | – | – | – | – | – | response of G6N mutant tagged CAR [1]: failed to respond; degradation of CK1a (in words) (ePL-tagged CK1a): degraded CK1a to a significant extent; DC50 (ePL-tagged CK1a; read-out: EC50): 190 nM; CAR degradation [2]: ~55%; CAR degradation (WT ZNF2_3 degron) [3]: deep CAR degradation; Erk phosphorylation (pErk) [4]: attenuated; tagged TOX levels (western blot) (tagged TOX): decreased; Aurora A levels (western blot) (Aurora A): decreased; DC50 (ePL-tagged GSPT1; read-out: EC50): 39 nM; DC50 (ePL-tagged Ikaros; read-out: EC50): 22 nM; inhibition of CAR activity [5]: strongly inhibit CAR activity
2 | O=C1CCC(N2Cc3cc(C(=O)N4Cc5cccnc5C4)ccc3C2=O)C(=O)N1 (stereo not drawn) [Compound B, 3-(5-(6,7-dihydro-5H-pyrrolo[3,4-b]pyridine-6-carbonyl)-1-oxoisoindolin-2-yl)piperidine-2,6-dione] | 65 | some degradation activity against Helios | > 10000 | 93 | > 10000 | 82 | > 10000 | 1.7 | 4.8 | < 5 | 1.7 | 4.8 | 72 | 54 | 91 | > 10000 | decrease of signaling (tdTomato reporter) [6]: around 75%; ubiquitination of IKZF1 ZNF2 Q1F (IKZF1 ZNF2 Q1F): heavily ubiquitinated; degradation of GSPT1 (in words) (ePL-tagged GSPT1): some degradation activity against GSPT1
3 | O=C1CCC(N2Cc3cc(C4CCN(Cc5ccc6ncsc6c5)CC4)ccc3C2=O)C(=O)N1 (stereo not drawn) [Compound D, 3-[5-[1-(1,3-benzothiazol-6-ylmethyl)-4-piperidyl]-1-oxo-isoindolin-2-yl]piperidine-2,6-dione] | 24 | some degradation of Helios | 460 | 87 | > 10000 | 81 | > 10000 | 4.2 | 0.7 | < 1 | 4.2 | 0.7 | 96 | > 10000 | 93 | > 10000 | selectivity for the Q1F degron (in words) [8]: selective for the Q1F degron; expansion and cytolytic function of degron-tagged CAR T cells [9]: decreased expansion and cytolytic function; CD3+ CAR+ cells remaining ([10]; 0.85 or 8.5 mg/kg orally (both doses), blood at 8 hours): < 5%; CAR level in vivo ([10]; 0.85 or 8.5 mg/kg orally, 24 hours): remained significantly degraded; CAR expression in vivo ([10]; 48 hours after dosing): substantially restored
